Measurements: ChEMBL document CHEMBL1158635, “Antitrypanosomal alkaloids from Polyalthia suaveolens (Annonaceae): their effects on three selected glycolytic enzymes of Trypanosoma brucei” (Bioorg Med Chem Lett, 2010)
Calls of active or inactive are those of the source. The rule behind the calls is not given here.

Key:
[1] = system: Trypanosoma brucei brucei; assay: Antitrypanosomal activity against Trypanosoma brucei brucei 427 bloodstream form after 72 hrs by LILIT method; assay type: functional; details: for EC50: Trypanosoma brucei, 427, 72 h, read-out: ED50 (the source's name)
[2] = target: T1, ATP-dependent 6-phosphofructokinase (Trypanosoma brucei) (UniProt O15648); assay: Ratio of Ki/Km for Trypanosoma brucei PFK expressed in Escherichia coli using fructose-6-phosphate by spectrophotometry analysis
T1 sequence (whole entry): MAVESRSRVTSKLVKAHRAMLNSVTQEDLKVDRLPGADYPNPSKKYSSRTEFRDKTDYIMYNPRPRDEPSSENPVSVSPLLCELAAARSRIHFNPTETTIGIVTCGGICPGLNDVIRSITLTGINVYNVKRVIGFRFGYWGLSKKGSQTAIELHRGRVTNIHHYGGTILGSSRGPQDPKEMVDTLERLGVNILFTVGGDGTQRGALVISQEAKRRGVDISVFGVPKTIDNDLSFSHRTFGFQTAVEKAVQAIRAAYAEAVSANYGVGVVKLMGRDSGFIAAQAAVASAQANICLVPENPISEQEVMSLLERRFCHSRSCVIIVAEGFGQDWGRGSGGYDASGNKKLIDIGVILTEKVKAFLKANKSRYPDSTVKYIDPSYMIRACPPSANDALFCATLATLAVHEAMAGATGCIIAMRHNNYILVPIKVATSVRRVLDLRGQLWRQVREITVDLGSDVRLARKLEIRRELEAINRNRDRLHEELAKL

MRC5 = assay: Cytotoxicity against human MRC5 cells after 72 hrs by Alamar blue staining; assay type: cell-based; details: mrc5, 72 h
Trypanosoma brucei [3] = assay: Inhibition of Trypanosoma brucei aldolase expressed in Escherichia coli at 100 uM
[4] = target: T2, Fructose-bisphosphate aldolase A (Oryctolagus cuniculus, UniProt P00883); assay: Inhibition of rabbit muscle aldolase
T2 sequence (P00883 whole entry): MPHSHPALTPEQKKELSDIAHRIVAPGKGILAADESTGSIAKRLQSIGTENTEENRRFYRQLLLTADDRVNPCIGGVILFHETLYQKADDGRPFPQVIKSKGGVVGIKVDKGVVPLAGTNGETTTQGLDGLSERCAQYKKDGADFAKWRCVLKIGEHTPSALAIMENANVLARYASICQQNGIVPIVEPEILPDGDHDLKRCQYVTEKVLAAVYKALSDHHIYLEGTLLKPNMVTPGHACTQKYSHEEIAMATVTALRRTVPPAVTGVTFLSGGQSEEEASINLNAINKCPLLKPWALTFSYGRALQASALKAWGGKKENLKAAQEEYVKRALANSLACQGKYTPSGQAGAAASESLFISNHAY

[5] = target: T3, ATP-dependent 6-phosphofructokinase, muscle type (Oryctolagus cuniculus) (UniProt P00511); assay: Inhibition of rabbit muscle PFK at 170 uM
T3 sequence (whole entry): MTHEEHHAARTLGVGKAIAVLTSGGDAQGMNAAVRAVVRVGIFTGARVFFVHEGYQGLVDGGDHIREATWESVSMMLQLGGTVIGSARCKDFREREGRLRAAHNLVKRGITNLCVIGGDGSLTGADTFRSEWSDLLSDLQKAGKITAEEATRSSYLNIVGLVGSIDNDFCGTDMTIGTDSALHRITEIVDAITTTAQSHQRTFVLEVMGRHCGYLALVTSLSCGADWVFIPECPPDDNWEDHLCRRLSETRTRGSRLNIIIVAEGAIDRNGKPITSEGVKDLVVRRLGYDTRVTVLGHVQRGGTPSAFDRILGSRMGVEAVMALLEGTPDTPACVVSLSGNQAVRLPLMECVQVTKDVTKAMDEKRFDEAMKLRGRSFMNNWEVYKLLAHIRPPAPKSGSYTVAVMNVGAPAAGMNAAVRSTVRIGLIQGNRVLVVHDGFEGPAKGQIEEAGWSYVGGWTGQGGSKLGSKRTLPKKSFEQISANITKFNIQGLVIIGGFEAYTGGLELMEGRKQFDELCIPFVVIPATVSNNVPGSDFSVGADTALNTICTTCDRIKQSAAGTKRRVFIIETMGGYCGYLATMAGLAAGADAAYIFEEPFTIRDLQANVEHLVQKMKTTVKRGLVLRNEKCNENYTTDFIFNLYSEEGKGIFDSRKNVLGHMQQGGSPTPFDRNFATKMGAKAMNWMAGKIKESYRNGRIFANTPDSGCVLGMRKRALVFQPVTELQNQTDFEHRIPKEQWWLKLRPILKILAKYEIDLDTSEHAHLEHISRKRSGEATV

[6] = Inhibition of Trypanosoma brucei GAPDH expressed in Escherichia coli
[7] = target: Glyceraldehyde-3-phosphate dehydrogenase (Oryctolagus cuniculus) (UniProt P46406); assay: Inhibition of rabbit muscle GAPDH at 3000 uM
Sequence of Glyceraldehyde-3-phosphate dehydrogenase (Oryctolagus cuniculus) (P46406 whole entry, looked up): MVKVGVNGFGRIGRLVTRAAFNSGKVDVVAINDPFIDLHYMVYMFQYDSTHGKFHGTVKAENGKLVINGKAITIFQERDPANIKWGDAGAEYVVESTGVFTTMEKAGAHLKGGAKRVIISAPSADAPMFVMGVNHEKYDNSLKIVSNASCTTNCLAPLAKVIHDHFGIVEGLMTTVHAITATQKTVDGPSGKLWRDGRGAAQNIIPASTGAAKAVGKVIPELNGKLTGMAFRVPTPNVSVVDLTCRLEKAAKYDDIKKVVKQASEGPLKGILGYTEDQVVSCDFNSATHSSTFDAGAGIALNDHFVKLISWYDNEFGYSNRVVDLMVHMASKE

[8] = target: T4, ATP-dependent 6-phosphofructokinase (Trypanosoma brucei, UniProt O15648); assay: Competitive reversible inhibition of Trypanosoma brucei PFK expressed in Escherichia coli using fructose-6-phosphate by spectrophotometry analysis
T4 sequence (O15648 whole entry): T1 sequence (whole entry)

[9] = target: T4, ATP-dependent 6-phosphofructokinase; assay: Inhibition of Trypanosoma brucei PFK expressed in Escherichia coli
[10] = Inhibition of Trypanosoma brucei aldolase expressed in Escherichia coli
[11] = target: T3, ATP-dependent 6-phosphofructokinase, muscle type (Oryctolagus cuniculus); assay: Inhibition of rabbit muscle PFK at 500 uM
[12] = Mixed-type reversible inhibition of Trypanosoma brucei GAPDH expressed in Escherichia coli using NAD+ by spectrophotometry analysis
[13] = Mixed-type reversible inhibition of Trypanosoma brucei GAPDH expressed in Escherichia coli at enzyme substrate complex by spectrophotometry analysis
[14] = target: Glyceraldehyde-3-phosphate dehydrogenase (Oryctolagus cuniculus, UniProt P46406); assay: Inhibition of rabbit muscle GAPDH
Sequence of Glyceraldehyde-3-phosphate dehydrogenase (P46406 whole entry): as the sequence (P46406 whole entry, looked up) above

[15] = Selectivity ratio of IC50 for rabbit muscle aldolase to IC50 for Trypanosoma brucei aldolase; assay type: tissue-based; details: Muscle tissue
[16] = target: T3, ATP-dependent 6-phosphofructokinase, muscle type (Oryctolagus cuniculus); assay: Inhibition of rabbit muscle PFK at 94 uM
[17] = target: T3, ATP-dependent 6-phosphofructokinase, muscle type (Oryctolagus cuniculus); assay: Inhibition of rabbit muscle PFK at 690 uM
[18] = target: Glyceraldehyde-3-phosphate dehydrogenase (Oryctolagus cuniculus) (UniProt P46406); assay: Inhibition of rabbit muscle GAPDH at 69 uM
Trypanosoma brucei [19] = assay: Inhibition of Trypanosoma brucei aldolase expressed in Escherichia coli at 140 uM
[20] = target: T5, Fructose-bisphosphate aldolase A (Oryctolagus cuniculus) (UniProt P00883); assay: Inhibition of rabbit muscle aldolase at 280 uM
T5 sequence (whole entry): T2 sequence (P00883 whole entry)

[21] = target: T1, ATP-dependent 6-phosphofructokinase (Trypanosoma brucei); assay: Inhibition of Trypanosoma brucei PFK expressed in Escherichia coli at 690 uM
Trypanosoma brucei [22] = assay: Inhibition of Trypanosoma brucei GAPDH expressed in Escherichia coli at 278 uM

## Nc1nc(N)nc(Nc2ccc([As]3SCC(CO)S3)cc2)n1 (stereo unspecified) [MELARSOPROL]
[1]
  EC50: 0.00395 µM

## CC1(C)C(=O)CC[C@]2(C)[C@H]3Cc4cc5ccccc5n4[C@]3(C)CC[C@@H]12
[2]
  Ki/Km: 0.05
MRC5
  Activity: Toxic

## CC1(C)C(=O)CC[C@]2(C)C3Cc4cc5ccccc5n4[C@]3(C)CC[C@@H]12 (stereo partly specified)
Trypanosoma brucei [3]
  inhibition: 8%
[4]
  IC50: 87 µM
[5]
  inhibition: 18%
[6]
  IC50: 1050 µM
[7]
  inhibition: inactive
[1]
  EC50: 18 µM
[8]
  Ki: 10 µM
[9]
  IC50: 20 µM

## CC1(C)[C@H](O)CC[C@]2(C)[C@@H]3C[C@@H]4Nc5ccccc5[C@@H]4[C@]3(C)CC[C@@H]12 [POLYVEOLINE]
[10]
  IC50: 80 µM
[11]
  inhibition: inactive
[4]
  IC50: 270 µM
[12]
  Ki: 18 µM
[13]
  Ki: 50 µM
[6]
  IC50: 110 µM
[14]
  IC50: 620 µM
[15]
  Ratio IC50: 3
[1]
  EC50: 54 µM
MRC5
  Activity: Toxic
[9]
  IC50: 30 µM

## CC(=O)O[C@H]1CC[C@]2(C)[C@H]3Cc4cc5ccccc5n4[C@]3(C)CC[C@H]2C1(C)C
[10]
  IC50: 0.5 µM
[4]
  IC50: 150 µM
[16]
  inhibition: 16%
[6]
  IC50: 110 µM
[14]
  IC50: 2050 µM
[1]
  ED50: inactive
MRC5
  Activity: Toxic
[9]
  IC50: 170 µM

## CC(=O)N1c2ccccc2[C@H]2[C@@H]1C[C@@H]1[C@@]2(C)CC[C@H]2C(C)(C)[C@H](O)CC[C@]12C
[17]
  inhibition: 12%
[18]
  inhibition: 10%
Trypanosoma brucei [19]
  inhibition: 11%
[20]
  inhibition: inactive
[1]
  EC50: 32 µM
MRC5
  Activity: Toxic
[21]
  inhibition: 28%
Trypanosoma brucei [22]
  inhibition: 10%

## CC1(C)C(=O)CC[C@@]2(C)[C@H]1CC[C@]1(C)[C@H]2Cc2cc3ccccc3n21 [POLYSIN]
[2]
  Ki/Km: 0.05
MRC5
  Activity: Toxic
[8]
  Ki: 9 µM
